Some test systems named below: KM12 colon; CAKI-1 renal; SN12C renal; UO-31 renal; IGROV1 ovarian; SK-MEL-2 melanoma; UACC-257 melanoma; COLO 205 colon; T-47D breast.
Holding throughout (assay): NCI-60 cell line screen, 48 h

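96-well plates; 48 h exposure; 5 concentrations. Endpoints by linear interpolation between flanking doses. Not reached: highest tested concentration assigned. GI50: concentration for 50% inhibition of growth. TGI marks complete inhibition of growth.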

On to `[Cl][Sn]([Cl])([c]1ccccc1)[c]1ccccc1`, for which the GI50 in the assay on KM12 colon was 19.6 µM; in the assay on CAKI-1 renal, 2.29 µM; with SN12C renal, 14.9 µM; with UO-31 renal, 19.4 µM; in the assay on IGROV1 ovarian, 19.3 µM; in the assay with SK-MEL-2 melanoma, 4 µM. The GI50 in the assay with UACC-257 melanoma is 13.6 µM. Further, the TGI in the assay with KM12 colon is 39.1 µM; in the assay on CAKI-1 renal it was 6.52 µM; in the assay on SN12C renal it was 28.2 µM; with UO-31 renal, 33.5 µM; in the assay on IGROV1 ovarian it was 38.3 µM; in the assay with SK-MEL-2 melanoma it was 14.1 µM. This compound returned a TGI in the assay on UACC-257 melanoma of 27 µM.
As to `CC(=O)N1c2ccccc2C2=CC3C4C(=O)N(c5ccccc5)C(=O)C4C21C1C(=O)N(c2ccccc2)C(=O)C31` (stereo unspecified), the TGI with KM12 colon, in the assay with CAKI-1 renal, in the assay with COLO 205 colon, in the assay with SN12C renal, in the assay with UO-31 renal and in the assay on IGROV1 ovarian was > 100 µM each time. The TGI is 56.2 µM in the assay on SK-MEL-2 melanoma and > 100 µM in the assay with UACC-257 melanoma.
For `CCN(CC)CCCn1cnc2ncccc2c1=O`, the TGI in the assay with KM12 colon, in the assay on CAKI-1 renal, in the assay on COLO 205 colon, in the assay on SN12C renal, with UO-31 renal and in the assay with IGROV1 ovarian was > 100 µM in each case. Further, the TGI in the assay on SK-MEL-2 melanoma is > 100 µM.
On to `CCCCCCCC(=O)NCC(O)CNC(=O)CCCCCCC`, for which the TGI in the assay on KM12 colon, in the assay on CAKI-1 renal, in the assay with COLO 205 colon, in the assay on SN12C renal, with UO-31 renal and in the assay on IGROV1 ovarian was > 100 µM each time. Also, the TGI in the assay on UACC-257 melanoma was > 100 µM.
On to `O=C(CCC(=O)Nc1cccc(Cl)c1)CC(=O)c1ccc(F)cc1`, for which the TGI in the assay on KM12 colon, with CAKI-1 renal, with COLO 205 colon, with SN12C renal, in the assay on UO-31 renal and in the assay with SK-MEL-2 melanoma was > 100 µM each time. In addition, the TGI in the assay on UACC-257 melanoma was > 100 µM.
For the compound `CN(C)CCN(C)CC1COC(C)(C)O1` (stereo unspecified), the TGI in the assay with KM12 colon, with CAKI-1 renal, in the assay on COLO 205 colon, in the assay with SN12C renal, in the assay on UO-31 renal and with IGROV1 ovarian was > 100 µM throughout. The TGI in the assay on SK-MEL-2 melanoma and in the assay with UACC-257 melanoma was > 100 µM throughout.
Take `O=C(O)C1=CCCc2ccc3ccccc3c21`: the TGI with KM12 colon, in the assay on COLO 205 colon, with SN12C renal, with UO-31 renal, in the assay with IGROV1 ovarian and in the assay on SK-MEL-2 melanoma was > 100 µM throughout. Moreover, the TGI with UACC-257 melanoma is > 100 µM.
As to `CCOc1ccccc1NC(=O)c1cc2ccccc2cc1O`, the GI50 in the assay with KM12 colon is 2.59 µM; in the assay with CAKI-1 renal, 3.45 µM; with COLO 205 colon, 12.7 µM; in the assay with SN12C renal, 2.64 µM; in the assay on UO-31 renal, 2.81 µM; with T-47D breast, 2.67 µM. Also, the GI50 with IGROV1 ovarian is 4.66 µM; in the assay with SK-MEL-2 melanoma, 2.42 µM; with UACC-257 melanoma, 2.23 µM. The TGI with KM12 colon was determined as 7.15 µM; with CAKI-1 renal it was 12.6 µM; with COLO 205 colon, 26.3 µM; in the assay with SN12C renal, 9.24 µM; with UO-31 renal it was 12.5 µM; with T-47D breast, 14.5 µM. The TGI with IGROV1 ovarian is 38.7 µM; in the assay with SK-MEL-2 melanoma, 5.47 µM; with UACC-257 melanoma it was 5.98 µM.
For `Cn1c2c(c3ccccc31)CCN(CCN1CCN(c3ccccc3)CC1)C2=O`, the TGI in the assay on CAKI-1 renal, in the assay with COLO 205 colon, in the assay on SN12C renal, with UO-31 renal and with IGROV1 ovarian was > 100 µM in each case.
With `COc1ccc(NC(=O)CC(=O)N2N=C(N(CCC#N)c3ccccc3Cl)CC2c2ccccc2)cc1` (stereo unspecified), the TGI in the assay on KM12 colon, in the assay on CAKI-1 renal, in the assay on COLO 205 colon, in the assay with SN12C renal, in the assay on UO-31 renal and in the assay with IGROV1 ovarian was > 100 µM throughout. Moreover, the TGI in the assay with SK-MEL-2 melanoma and in the assay with UACC-257 melanoma was > 100 µM throughout.
For the compound `Nc1nc2sc3ccccc3c(=O)n2n1`, the TGI in the assay on KM12 colon, in the assay with CAKI-1 renal, with COLO 205 colon, in the assay on SN12C renal, in the assay on UO-31 renal and in the assay with IGROV1 ovarian was > 100 µM in each case. Further, the TGI with SK-MEL-2 melanoma and in the assay on UACC-257 melanoma was > 100 µM each time.
Turning to `CC[O-].CC[O-].O=C([CH-]C(=O)c1cccnc1)c1ccccc1.O=C([CH-]C(=O)c1cccnc1)c1ccccc1.[Ti+4]`, the GI50 with KM12 colon was 32.7 µM; in the assay on CAKI-1 renal it was > 100 µM; in the assay with SN12C renal it was > 100 µM; with UO-31 renal it was > 100 µM; in the assay on IGROV1 ovarian it was > 100 µM; in the assay with SK-MEL-2 melanoma it was > 100 µM. In the assay with UACC-257 melanoma, the GI50 is 52.2 µM. For the same compound, the TGI with KM12 colon, in the assay with CAKI-1 renal, in the assay with SN12C renal, in the assay on UO-31 renal, in the assay with IGROV1 ovarian and with SK-MEL-2 melanoma was > 100 µM each time. In addition, in the assay with UACC-257 melanoma, the TGI was > 100 µM.
Turning to `COC(=O)C1CCC(Nc2ccc(C)cc2C)=N1` (stereo unspecified), the TGI in the assay with KM12 colon, in the assay on CAKI-1 renal, with COLO 205 colon, in the assay on SN12C renal, in the assay on UO-31 renal and in the assay with IGROV1 ovarian was > 100 µM each time. Besides, the TGI in the assay on SK-MEL-2 melanoma and in the assay on UACC-257 melanoma was > 100 µM each time.
In the case of `CCOC(=O)c1c(-c2ccccc2)oc(-c2ccccc2)c1C(=O)OCC`, the TGI with KM12 colon, in the assay with COLO 205 colon, in the assay with SN12C renal, in the assay on UO-31 renal, in the assay on IGROV1 ovarian and in the assay with SK-MEL-2 melanoma was > 100 µM throughout. Moreover, the TGI in the assay with UACC-257 melanoma was > 100 µM.

The record behind these values is PubChem BioAssay (NCI).
